We go through 28 compounds from PubChem BioAssay AID850 (SRMLSC, 2007).

Experiment [1] is described as follows: yeast lifespan-shortening chemical project counter-assay, dose-response inhibition of growth under permissive conditions (AID 850).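 Note: growth read as optical density after one day of incubation.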 The following applies: Saccharomyces cerevisiae growth inhibition, permissive control, measured here: maximum growth inhibition, stronger effect = higher value.
Experiment [2] has as its system Saccharomyces cerevisiae growth inhibition, permissive control. Described as above.

Active and inactive are the calls of the source. The rule behind the calls is not given here.

For orientation: inhibition means the change of the read-out against control, counted positive when it falls. The IC50 is the point on the concentration scale where inhibition reaches its midpoint. On to `Cc1cc(Cl)ccc1N=c1ssnc1Cl`, for which the inhibition in experiment [1] (at 12.5 µM) was found to be 14%. Further, the IC50 in experiment [2] is > 100 µM (inactive).

As for `CCN1/C(=C(\O)c2ccccc2)C(=O)c2ccccc2S1(=O)=O`, the inhibition in experiment [1] (at 1.563 µM) came to 19.4%. Besides, in experiment [2], the IC50 was > 100 µM (inactive).

In the case of `CCN1/C(=C/c2ccc3ccc(C)cc3[n+]2CC)Sc2ccccc21`, the inhibition in experiment [1] (at 50 µM) was found to be 92.9%. In experiment [2], the IC50 is 21.7 µM.

For `Cc1ccc(-c2nc3sc(C(N)=O)c(N)c3c3c2CCCC3)cc1`, the inhibition in experiment [1] (at 50 µM) was determined as 14.4%. Further, in experiment [2], the IC50 was > 100 µM (inactive).

Consider `COc1ccc(-c2n[nH]c(C)c2-c2ccc(Cl)cc2)c(O)c1`, for which, in experiment [1] (at 50 µM), the inhibition was found to be 99%. Moreover, the IC50 in experiment [2] was 33.9 µM.

For `Clc1cccc(CN2COc3c(cc(Cl)c4cccnc34)C2)c1`, the inhibition in experiment [1] (at 50 µM) stood at 101%. In addition, the IC50 in experiment [2] is 6.88 µM.

As to `CCCC(=O)NC(c1cccs1)c1cc([N+](=O)[O-])c2cccnc2c1O` (stereo unspecified), the inhibition in experiment [1] (at 50 µM) stood at 96.5%. Besides, the IC50 in experiment [2] is 24.1 µM.

On to `CC1=NNC(=O)/C1=C\c1cn(-c2ccccc2)nc1-c1cccs1`, for which the inhibition in experiment [1] (at 50 µM) was found to be 98%. In addition, the IC50 in experiment [2] was 8.18 µM.

`C/C(O)=c1/ccc2cccc3nc(C)nc1c23`: the inhibition in experiment [1] (at 25 µM) came out at 24.2%. In experiment [2], the IC50 is > 100 µM (inactive).

`CCc1ccc(C2NC(=S)NC3=C2C(=O)N(c2ccccc2OC)C(c2ccc(CC)cc2)N3)cc1` (stereo unspecified): the inhibition in experiment [1] (at 0.781 µM) is 2.18%. In addition, the IC50 in experiment [2] is > 100 µM (inactive).

As to `Cc1cc(O)c(/C=N/Nc2ccccc2)c(=O)o1`, the inhibition in experiment [1] (at 50 µM) was determined as 97.9%. Besides, the IC50 in experiment [2] is 19.5 µM.

Turning to `O=C(OCn1ncc(Br)c(Br)c1=O)c1ccc(F)cc1`, in experiment [1] (at 12.5 µM), the inhibition amounted to 78.7%. In experiment [2], the IC50 is 7.71 µM.

For the compound `Cc1conc1NC(c1cccs1)c1ccc2cccnc2c1O` (stereo unspecified), the inhibition in experiment [1] (at 50 µM) came to 69.2%. Further, the IC50 in experiment [2] is 44.9 µM.

Regarding `O=C(COc1ccccc1)NNC(=S)NC(=O)c1ccc(Cl)cc1Cl`, in experiment [1] (at 50 µM), the inhibition was determined as 84.4%. Further, in experiment [2], the 50% inhibitory concentration (IC50) is 25.7 µM.

Regarding `CC(NC(=O)/C(C#N)=C/c1ccc(Cl)c([N+](=O)[O-])c1)c1ccccc1` (stereo unspecified), the inhibition in experiment [1] (at 50 µM) was found to be 15%. Moreover, the IC50 in experiment [2] is > 100 µM (inactive).

With `COc1ccc(NC(=O)C2CCCN2S(=O)(=O)c2cccc3cccnc23)c(OC)c1` (stereo unspecified), the inhibition in experiment [1] (at 50 µM) is 102%. For the same compound, the IC50 in experiment [2] is 5.82 µM.

Take `CCC(C)NC(=O)C1CCN(S(=O)(=O)c2cccc3cccnc23)CC1` (stereo unspecified): the inhibition in experiment [1] (at 50 µM) is 12.2%. The IC50 in experiment [2] was > 100 µM (inactive).

As to `N=c1n(CCN2CCOCC2)c2ccccc2n1CC(=O)c1ccc(Cl)c(Cl)c1`, the inhibition in experiment [1] (at 50 µM) turned out to be 61.4%. The IC50 in experiment [2] is 35.4 µM.

Turning to `CC(C)(C)N/N=C/c1cc(Cl)cc([N+](=O)[O-])c1O`, the inhibition in experiment [1] (at 50 µM) worked out at 95.7%. In experiment [2], the IC50 is 16.8 µM.

In the case of `CCOC(=O)c1c(N)sc(C(O)(C(F)(F)F)C(F)(F)F)c1-c1ccc(Cl)cc1`, in experiment [1] (at 0.781 µM), the inhibition turned out to be 7.92%. Further, the IC50 in experiment [2] was > 100 µM (inactive).

As to `COc1ccc(OC)c(-c2c3cc(O)c(=O)cc-3oc3cc(O)c(O)cc23)c1`, the inhibition in experiment [1] (at 50 µM) is 63.5%. In experiment [2], the IC50 was 28.1 µM.

With `CN1CCN(CC(=O)N2CCn3c4c(c5cc(C6CCCCC6)ccc53)CCCC42)CC1` (stereo unspecified), the inhibition in experiment [1] (at 1.563 µM) is 6.73%. Further, the IC50 in experiment [2] is > 100 µM (inactive).

On to `O=C(CC(=O)c1cc(Cl)ccc1O)c1ccccc1`, for which the inhibition in experiment [1] (at 12.5 µM) is 24.9%. The IC50 in experiment [2] was > 100 µM (inactive).

On to `COc1cc(Br)cc(/C=N/c2ncn[nH]2)c1O`, for which the inhibition in experiment [1] (at 50 µM) turned out to be 97.8%. Moreover, the IC50 in experiment [2] is 18.3 µM.

`O=c1c(-c2ccccc2)nc(-c2ccccc2)cn1O`: the inhibition in experiment [1] (at 50 µM) worked out at 82.1%. Moreover, the IC50 in experiment [2] is 22.9 µM.

For `O=C(Nc1nnc(C2CC2)s1)c1ccccn1`, the inhibition in experiment [1] (at 50 µM) is 22.8%. Moreover, the IC50 in experiment [2] is > 100 µM (inactive).

For the compound `Oc1c(Br)cc(Br)cc1C=Nc1ccc2c(c1)OCO2`, the inhibition in experiment [1] (at 50 µM) was 86%. Further, the IC50 in experiment [2] is 36.5 µM.

Consider `CCCCCCOC(=O)Sc1nc2ccccc2o1`, for which, in experiment [1] (at 50 µM), the inhibition worked out at 99%. The IC50 in experiment [2] is 11.7 µM.
